In article PMC5867665, “Targeting Multiple Effector Pathways in Pancreatic Ductal Adenocarcinoma with a G-Quadruplex-Binding Small Molecule” (Journal of Medicinal Chemistry, 2018):

Columns and labels:
[1] = Maximum tolerated dose (MTD) study; assay type: in vivo; conditions: dose-escalation MTD study, IV, CD-1 nude mice
Procedure: To determine if the in vitro activity of CM03 was paralleled in vivo, we explored the activity of CM03 in a mouse xenograft model of PDAC. We have previously reported that the maximum tolerated dosage (MTD) for intravenous (IV) administration of MM41 is 25 mg/kg.[33] CM03 was well tolerated, up to a dosage of 45–50 mg/kg, as judged by a dose-escalation MTD study. A therapeutic schedule of two CM03 intravenous (IV) doses was explored using a subcutaneous MIA PaCa-2 pancreatic tumor xenograft model derived from the human cell line used in the cell growth inhibition studies. A group size of eight CD-1 nude mice was used, and dosing was conducted at 10 and 15 mg/kg, each twice weekly, over a period of 4 weeks (28 days: 8 doses). Two further groups were given either MM41 or gemcitabine at 15 mg/kg and received the same dose regimen. […] IVIS imaging of treated mice was performed by taking account of the intrinsic fluorescence of CM03. […] Thus, in contrast to MM41 and gemcitabine, the higher-dose CM03 treatment results in a statistically significant (p < 0.001) antitumor effect, which persisted long after dosing had ceased, up to the termination of the xenograft experiment (62 days).
The maximum tolerated dose (MTD) studies of MM41 and CM03 were performed in CD-1 nude mice. […] Mice were monitored visually for signs of adverse effects over periods of up to 72 h. […]

[2] = test system: PANC-1 and MIA PaCa-2 cells; assay: RNA-seq gene expression, genes common to PANC-1 and MIA PaCa-2; assay type: cell-based, human
Text: CM03 is a potent G4 ligand, as shown by the FRET and quantitative binding experiments reported here. We therefore reasoned that the potent CM03 antiproliferative activity on PDAC cells could be mediated through a G4-targeting mechanism. To test this hypothesis, we determined whether transcriptome changes upon early CM03 treatment were correlated with G4 presence in promoters and/or gene bodies. […] The time and dose of CM03 treatment were selected to reveal initial but robust mRNA changes while minimizing chronic effects due to cell toxicity. In both cell lines, the number of genes with altered expression (as defined by >0.5 increase in Log 2 of fold change [Log2 FC], or < −0.5 decrease; false discovery rate [FDR] < 0.1) increased with duration of CM03 treatment. In PANC-1 cells 2165 genes at 6 h and 3977 genes at 24 h were seen to change, while in MIA PaCa-2 cells, 5306 genes changed at 6 h and 5477 genes at 24 h compared to untreated controls (Supporting Information, Table 1). […] To validate that the targeting of G4-containing genes is not a general feature of antiproliferative agents, we also examined the effects of the first-line therapeutic agent for PDAC, gemcitabine,[37] a potent antiproliferative DNA synthesis inhibitor whose mechanism of action is G4-independent and which remains a standard therapy option in advanced PDAC. Both cell lines were treated with a range of gemcitabine concentrations (Supporting Information, Figure 4, Table 4) for 6 or 24 h.
The PDAC cell lines PANC-1 (ATCC, catalogue no. CRL-1469) and MIA PaCa-2 (ATCC, catalogue no. CRL-142) were maintained in DMEM (ThermoFisher, catalogue no. 11965092) supplemented with 10% (v/v) heat inactivated FBS (ThermoFisher) in a humidified atmosphere containing 5% CO2 at 37 °C. Cell lines were confirmed mycoplasma free by RNA-capture ELISA, and their genotypes were certified by STR profiling.
PANC-1 (0.35 × 10^6 cells/well) and MIA PaCa-2 (1.5 × 10^6 cells/well) cell lines were seeded overnight in 60 mm plates. Next day, cells were treated with 400 nM CM03 for 6 and 24 h. For gemcitabine treatment, cells were treated for 6 and 24 h with DMSO or 30 nM, 100 nM, 300 nM, 1 μM, 3 μM, and 10 μM gemcitabine-HCL for PANC-1 cells and 30 nM, 300 nM, and 3 μM gemcitabine-HCl for MIA PaCa-2 cells. Total RNA was extracted using the Qiagen RNeasy Plus Mini Kit (ThermoFisher, catalogue no. 74134) as per the manufacturer’s instructions. RNA quality (RIN > 9.0) was checked with an Aligent 2100 bioanalyzer RNA 6000 Nano Chip, and RNA concentration was quantified using a Qubit fluorometer (ThermoFisher) and Qubit RNA HS Assay Kit (Qiagen, catalogue no. Q32852). RNA-seq libraries were then generated using the Illumina Truseq RNA HT (stranded mRNA) kit (Illumina, catalogue no. RS-122–2103) as per the manufacturer’s instructions and sequenced using an Illumina HiSeq4000.
Fastq raw sequencing files were preprocessed using cutadapt[81] to remove sequencing adapters and low quality sequencing tails (options −q 10) and then aligned to the human genome (GRCh37/hg19) using tophat2[82] and using the UCSC gtf file provided by Illumina iGenomes as an annotation file (http://support.illumina.com/sequencing/sequencing_software/igenome.html). Gene counts were calculated using htseq-count[83] and the same gtf file. Differential expression analysis was done using the R package edgeR.[84] Differentially expressed genes were estimated independently for both cell lines (MIA PaCa-2 and PANC-1) and for the different time points (6 and 24 h) and were then intersected to inspect the common genes. The sequencing data is available at the GEO public functional genomics data repository (https://www.ncbi.nlm.nih.gov/geo/) as GSE105083. Details of the putative G4 sequence (PQs) analysis are given in the Supporting Information.

[3] = RNA-seq, 400 nM CM03, 6 h, both cell lines combined
[4] = RNA-seq, 400 nM CM03, 24 h, both cell lines combined

## O=C1c2ccc3c4c(c(NCCN5CCCC5)cc(c24)C(=O)N1CCCN1CCOCC1)C(=O)N(CCCN1CCOCC1)C3=O [CM03, 2,7-bis(3-morpholinopropyl)-4-((2-(pyrrolidin-1-yl)ethyl)amino)benzo[lmn][3,8]phenanthroline-1,3,6,8(2H,7H)-tetraone]
[1]
  well tolerated, up to a dosage of: 45 to 50 mg/kg
[2]; 400 nM CM03, 6 h
  genes changed in both cell lines: 1185
[2]; 400 nM CM03, 24 h
  genes changed in both cell lines: 1917
[2]; RNA-seq, 400 nM CM03, 6 and 24 h, either pancreatic cell line
  KRAS mRNA expression: unaffected
[2]; [3]
  A1BG combined_logFC.6h.both: 0.1086
  A2LD1 combined_logFC.6h.both: -0.2585
  AAAS combined_logFC.6h.both: -0.007867
  AACS combined_logFC.6h.both: 0.04302
[2]; [4]
  A1BG combined_logFC.24h.both: -0.3316
  A2LD1 combined_logFC.24h.both: -0.03116
  A4GALT combined_logFC.24h.both: 0.4104
  AACS combined_logFC.24h.both: -0.1174
